Patent US20210283151A1, “USE OF COMPOUND IN DRUG FOR PREVENTING, TREATING, OR ALLEVIATING PAIN” (ASCENTAWITS PHARMACEUTICALS, LTD., priority 2018, published 2021)

Assays:
AKR1C3 = molecular target: T1, AKR1C3 (Homo sapiens, UniProt P42330); assay: In vitro AKR1C3 activity: production of reduced progesterone (20α-dihydroprogesterone) by LC/MS; assay type: biochemical; conditions: reaction 30 min; for AKR1C3 activity % / activity at 5 µM: negative control = 100
T1 sequence (P42330 1-323): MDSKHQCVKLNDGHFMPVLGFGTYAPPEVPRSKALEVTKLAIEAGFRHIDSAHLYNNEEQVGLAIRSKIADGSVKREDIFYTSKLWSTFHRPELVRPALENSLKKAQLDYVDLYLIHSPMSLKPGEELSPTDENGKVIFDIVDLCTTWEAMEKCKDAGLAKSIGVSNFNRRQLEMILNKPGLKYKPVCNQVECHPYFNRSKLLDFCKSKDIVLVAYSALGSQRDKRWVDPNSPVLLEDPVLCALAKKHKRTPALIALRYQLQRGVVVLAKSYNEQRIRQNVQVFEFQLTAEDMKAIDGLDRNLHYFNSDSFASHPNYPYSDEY
Procedure: Experimental apparatus: Waters Acquity I Class UPLC Ultra Performance Liquid Chromatograph equipped with a Xevo G2-XS Q Tof HRMS Quadrupole Time-of-flight High-Resolution Mass Spectrometer
1. PBS phosphate buffered saline solution,
2. PBS phosphate buffered saline solution of 20 mM NADPH
3. PBS phosphate buffered saline solution of 250 μg/mL AKR1C3
5. 50% MeOH/H2O solution of 250 μM progesterone
6. 100% acetonitrile solution of 1 μg/mL propranolol
In step 1, the reaction mixtures were prepared into Eppendorf tubes in quadruplicate (n=4) according to the table below and mixed gently.
In step 2, the above mixtures were pre-incubated in duplicate at 37° C. for 30 minutes and 60 minutes.
In step 3, another 10 μL of PBS phosphate buffered saline solution of 20 mM NADPH and 2 μL of 50% MeOH/H2O solution of 250 μM progesterone were added to each Eppendorf tube and mixed gently.
In step 4, 50 μL of the mixture in the above step was immediately transferred to 100 μL of 100% acetonitrile solution of 1 μg/mL propranolol (internal standard (IS)).
In step 5, the remaining samples were incubated at 37° C. for 30 minutes, and 100 μL of 100% acetonitrile solution of 1 μg/mL propranolol (internal standard (IS)) was added.
In step 6, 100 μL of reagent water was added to all the samples, vortexed at 1,100 rpm for 5 minutes, and centrifuged at 15,000 rpm for 10 minutes at room temperature.
In step 7, all the samples were loaded on LC/MS to determine the content of reduced progesterone, namely 20α-dihydroprogesterone.
The test conditions for the LC-MS apparatus are shown below
In step 9, the reduced progesterone (20α-dihydroprogesterone) is calculated: the peak area of the reduced progesterone, namely 20α-dihydroprogesterone and propranolol, in each sample was determined by LC/MS. The peak area ratios of reduced progesterone to propranolol (i.e., the ratios in the above table) were calculated, and when the time is 0 the ratio is set to 0%.
AKR1C3 activity (%)=[(the amount of reduced progesterone after normalization of the sample) 30 min−(the amount of reduced progesterone after normalization of the sample) 0 min]/[(the amount of reduced progesterone after normalization of the negative control group) 30 min−(the amount of reduced progesterone after normalization of the negative control group) 0 min]*100.
The AKR1C3 activity results in the above table were calculated according to the above formula.

prostaglandin F2 = assay: Serum prostaglandin F2 by ELISA after single intravenous infusion to cynomolgus monkeys; assay type: in vivo, cynomolgus monkey; conditions: for The measured concentration of prostaglandin F2: 1 mg/kg intravenous infusion; for Effect on prostaglandin F2 content (in words): cynomolgus monkeys, after administration (0.58 mg/kg as printed in b199), fluctuating increase at 24 h; for The measured concentration of prostaglandin F2, Mean: mean of 3 animals, before administration 1088.09
Procedure: (§1) An experiment with three cynomolgus monkeys was performed according to the table below.
(§2) Four male cynomolgus monkeys were purchased from Guangxi Xiongsen Primate Development and Experiment Co., Ltd., and all of them were healthy cynomolgus monkeys that had passed the physical examination and have no abnormalities. Among them, three cynomolgus monkeys were used in the experiment of administration and the remaining one was used for preparing blank plasma.
(§3) Before administration, and 6, 24, 48 and 72 hours after the start of administration, 1 mL of blood was collected from the femoral vein or other suitable vein, and placed in a blood collection tube without anticoagulant. After collected, the blood sample was placed on ice and allowed to stand for 30-60 minutes before being centrifuged at 3,500 rpm for 10 minutes at 2-8° C. to separate the serum. The collected serum was stored at −80° C. before being analyzed.
(§4) Prostaglandins E2 and F2 in serum samples were analyzed by conventional ELISA methods. The measurement results are as follows.
(§5) The concentrations of prostaglandins E2 and F2 in the serum after single administration to cynomolgus monkeys by intravenous infusion

prostaglandin E2 = assay: Serum prostaglandin E2 by ELISA after single intravenous infusion to cynomolgus monkeys; assay type: in vivo, cynomolgus monkey; conditions: for The measured concentration of prostaglandin E2: 1 mg/kg intravenous infusion; for The measured concentration of prostaglandin E2, Mean: mean of 3 animals, before administration 469.60
Procedure: as §1, §2, §3, §4, §5

[1] = 5 μM AST-3424, pre-incubation 30 min at 37° C.
[2] = 5 μM AST-3424, pre-incubation 60 min at 37° C.
[3] = animal 101, 6 h after start of administration
[4] = animal 101, 24 h after start of administration
[5] = animal 101, 48 h after start of administration
[6] = animal 101, 72 h after start of administration
[7] = animal 102, 6 h after start of administration
[8] = animal 102, 24 h after start of administration
[9] = animal 102, 48 h after start of administration
[10] = animal 102, 72 h after start of administration
[11] = animal 103, 6 h after start of administration
[12] = animal 103, 24 h after start of administration
[13] = animal 103, 48 h after start of administration
[14] = animal 103, 72 h after start of administration

C[C@H](OP(=O)(N1CC1)N1CC1)c1ccc([N+](=O)[O-])c(Oc2cccc(C(=O)N(C)C)c2)c1 [AST-3424]
AKR1C3 activity % (AKR1C3; [1]): 3.9%
activity at 5 µM (AKR1C3; [1]): 3.9%
AKR1C3 activity % (AKR1C3; [2]): 9.2%
activity at 5 µM (AKR1C3; [2]): 9.2%
Peak area ratio of reduced progesterone to propranolol (AKR1C3; pre-incubation 30 min, negative control 0.1506): 0.0074
Peak area ratio of reduced progesterone to propranolol (AKR1C3; pre-incubation 60 min, negative control 0.1343): 0.0137
The measured concentration of prostaglandin F2 (prostaglandin F2; [3]): 165.32 pg/mL
The measured concentration of prostaglandin F2 (prostaglandin F2; [4]): 816.63 pg/mL
The measured concentration of prostaglandin F2 (prostaglandin F2; [5]): 183.73 pg/mL
The measured concentration of prostaglandin F2 (prostaglandin F2; [6]): 441.76 pg/mL
The measured concentration of prostaglandin F2 (prostaglandin F2; [7]): 260.80 pg/mL
The measured concentration of prostaglandin F2 (prostaglandin F2; [8]): 3460.25 pg/mL
The measured concentration of prostaglandin F2 (prostaglandin F2; [9]): 216.12 pg/mL
The measured concentration of prostaglandin F2 (prostaglandin F2; [10]): 968.01 pg/mL
The measured concentration of prostaglandin F2 (prostaglandin F2; [11]): 300.65 pg/mL
The measured concentration of prostaglandin F2 (prostaglandin F2; [12]): 4208.19 pg/mL
The measured concentration of prostaglandin F2 (prostaglandin F2; [13]): 541.05 pg/mL
The measured concentration of prostaglandin F2 (prostaglandin F2; [14]): 1369.67 pg/mL
Effect on prostaglandin F2 content (in words) (prostaglandin F2; 0.58 mg/kg): greatly reduce the content of PGF2
Effect on prostaglandin F2 content (in words) (prostaglandin F2; listed as AST3424, 0.58 mg/kg): decreased
The measured concentration of prostaglandin F2, Mean (prostaglandin F2; 6 h): 242.26 pg/mL
The measured concentration of prostaglandin F2, Mean (prostaglandin F2; 24 h): 2828.36 pg/mL
The measured concentration of prostaglandin F2, Mean (prostaglandin F2; 48 h): 313.63 pg/mL
The measured concentration of prostaglandin F2, Mean (prostaglandin F2; 72 h): 926.48 pg/mL
The measured concentration of prostaglandin E2 (prostaglandin E2; [3]): 210.67 pg/mL
The measured concentration of prostaglandin E2 (prostaglandin E2; [4]): 450.48 pg/mL
The measured concentration of prostaglandin E2 (prostaglandin E2; [5]): 322.13 pg/mL
The measured concentration of prostaglandin E2 (prostaglandin E2; [6]): 408.15 pg/mL
The measured concentration of prostaglandin E2 (prostaglandin E2; [7]): 214.73 pg/mL
The measured concentration of prostaglandin E2 (prostaglandin E2; [8]): 822.21 pg/mL
The measured concentration of prostaglandin E2 (prostaglandin E2; [9]): 168.84 pg/mL
The measured concentration of prostaglandin E2 (prostaglandin E2; [10]): 521.78 pg/mL
The measured concentration of prostaglandin E2 (prostaglandin E2; [11]): 670.73 pg/mL
The measured concentration of prostaglandin E2 (prostaglandin E2; [12]): 2735.20 pg/mL
The measured concentration of prostaglandin E2 (prostaglandin E2; [13]): 276.35 pg/mL
The measured concentration of prostaglandin E2 (prostaglandin E2; [14]): 663.03 pg/mL
Effect on prostaglandin E2 content (in words) (prostaglandin E2; cynomolgus monkeys, after administration (0.58 mg/kg), fluctuating increase at 24 h): decreased
The measured concentration of prostaglandin E2, Mean (prostaglandin E2; 6 h): 365.38 pg/mL
The measured concentration of prostaglandin E2, Mean (prostaglandin E2; 24 h): 1335.97 pg/mL
The measured concentration of prostaglandin E2, Mean (prostaglandin E2; 48 h): 255.78 pg/mL
The measured concentration of prostaglandin E2, Mean (prostaglandin E2; 72 h): 530.99 pg/mL
